The values below come from US7910586B2, “Compositions and methods for prevention and treatment of amyloid-β peptide-related disorders” (The Rockefeller University, priority 2002, dated 2011).

The subject of one data set is γ-secretase. In words: Isolated γ-secretase activity: Aβ release (ELISA) from membranes of N2a cells expressing recombinant C99. The class given is biochemical, mouse. As to conditions: membranes from N2a cells expressing C99, with ATP; FIG. 4. Here is the method:
For the assay of isolated γ-secretase activity, membranes were isolated from N2a cells expressing a recombinant γ-secretase substrate, C99, according to the methods of Zhang et al. (2001, Biochemistry 40: 5049-5055). […] Also, to determine whether ATP was primarily responsible for stimulating γ-secretase activity, the previous energy regenerating system was substituted with one designed to sustain concentrations of ATP alone but not GTP. Aβ release from isolated membranes was determined by ELISA (Biosource International, Camarillo, Calif.).

For a further data set, the system named is mΔe-Notch. In words: Notch cleavage in N2a cells transfected with mΔe-Notch. The class given is cell-based, mouse. The note with it: at levels that strongly inhibit Aβ-formation; FIGS. 17 and 18. An excerpt: N2a cells were transfected with a constitutively active truncated form of Notch, mouse “deleted-extracellular” Notch (mΔe-Notch), which supplies a direct substrate for γ-secretase (De Strooper et al., 1999, Nature 398: 518-522).

Data set [1] has as its system Abl knockout (Abl−/−) 3T3 mouse fibroblasts. In words: Aβ production in Abl knockout (Abl−/−) 3T3 mouse fibroblasts. As to conditions: 5 μM or 10 μM STI-571; 0.5 μM or 1.0 μM Compound 1; similar degree as in wild-type and N2a cells. The class given is cell-based. As to the method: (§1) Abl knockout (Abl−/−) 3T3 mouse fibroblasts and wild-type 3T3 mouse fibroblasts (see Liu et al., 1996, Nature 384(6606):273-6) were grown separately and to confluence in 100 mm Corning tissue culture plates. These fibroblast cell lines are permanent cell lines. […] Several other plates were exposed to either 0.5 μM or 1.0 μM Compound 1 (dissolved in DMSO) or to DMSO without Compound 1.
(§2) For the above-described cell cultures, each of the drugs or control solvents was added to a standard culture medium (DMEM+10% FBS+pen/strep) at a dilution of 1:1000 and cultures were then incubated at 37° C. for 2 hours. The contacting of cell cultures and incubation with inhibitors and solvent, as described above, constituted “pretreatment” of cells.
(§3) The first culture medium was then removed and the cell cultures were rinsed with a second culture medium lacking methionine, cysteine and glutamate. The cell cultures were incubated with this culture medium for 30 minutes (to stimulate subsequent uptake of amino acids). Then the second culture medium was exchanged for fresh first culture medium containing ^35S-labeled methionine and cysteine (NEN Express label 50 μl/ml) and unlabeled glutamine (final concentration 2 mM) and with inhibitors as described above, and incubated for 4 hours at 37° C. […]

Data set [2] relates to rat embryonic cortical neurons. In words: Aβ production in rat primary embryonic cortical neuronal cultures. The format is cell-based.
The test system of data set [3] is N2a cells expressing Swedish variant of human APP and the PS1 mutation. As to the kind of experiment: Mass spectrometry (Ciphergen ProteinChip, SELDI-TOF) of Aβ40 and Aβ42 in media from N2a cells. The class given is cell-based, mouse. The note with it: FIG. 5. As to the method: Mass spectrometry was carried out on media from N2a cells to detect Aβ40 and Aβ42 peptides using the CiphergenProteinChip System (Ciphergen Biosystems Inc., Fremont, Calif.), which is based on Seldi and time-of-flight mass spectrometry, using standard protocols as set out by the manufacturer. The experimental procedures were the same as those disclosed above for immunoprecipitation/Western blotting, without metabolic labeling. […] Aliquots of detergent treated media were contacted to a metal chip that was previously contacted with an antibody, such as 6E10. The antibody binds human APP metabolites, including Aβ, in the applied sample. Detection of bound antigen followed a laser pulse that dissociated antigen from antibody.
Aβ peptides were resolved graphically as peaks of various heights, situated on an x-axis denoting molecular mass. Thus, Aβ40 and Aβ42 were resolved separately at approximately 4333 and 4519 daltons, respectively. The relative heights or areas under the peaks in a given spectrum denoted the relative concentrations of the detected species. Peaks corresponding to the same species, as conveyed by molecular mass, were compared among different spectra, reflecting different samples, to measure relative quantities of Aβ among a set of samples.

The test system of data set [4] is N2a cells transfected with the human Swedish APP mutation. As to the kind of experiment: Aβ generation in N2a cells transfected with human Swedish APP and normal or ΔE9 presenilin 1 (immunoprecipitation, autoradiography, Western blot). The format is cell-based, mouse. The note with it: for Aβ after one hour of treatment: 35S labeled N2a cells expressing human APP-Swedish. As to the method:
N2a cells transfected with the human Swedish APP mutation, and with either normal human presenilin 1 or ΔE9 mutant presenilin 1 (PS1), were used for assays of compound effect on Aβ generation.
Media was added with compound concentration of 0, 10^−9, 10^−8, 10^−7 and 10^−6 M; cells were incubated overnight at 37° C. The next day, cells were incubated with ^35S-methionine and ^35S-cysteine for four hours in the presence of the compound as above.
Media and cells were separately harvested and subjected to immunoprecipitation with antibody 4G8 (Senetek, Napa, Calif.), which recognizes an epitope corresponding to residues 17-28 of Aβ. Antibody 4G8 immunoprecipitates Aβ from media, and Aβ plus full-length APP from cells. After removal of antibody 4G8 and bound Aβ from media, the supernatant was reacted with 22C11 (Chemicon International), an antibody that immunoprecipitates sAPPβ and sAPPα. Immunoprecipitates were subjected to PAGE and resolved by autoradiography according to standard methods. APP metabolites were compared by densitometry according to standard methods.
In other experiments, immunoprecipitation followed by Western blot analysis was carried out on unlabeled (no radioactive label) N2a cells, using standard methods and using 6E10 (Senetek, Napa, Calif.) or 22C11 antibodies for detection.
These immunoprecipitation experiments were repeated using a minimal treatment time, 1 hour instead of overnight.
For orientation: Immunoblotting shows a protein as a band on a membrane.

Data set [5] relates to rat embryonic cortical neurons. In words: Aβ production in rat primary embryonic cortical neuronal cultures. The note with it: for production of Aβ peptides: normal rat primary neuronal cell cultures; for concentration at which significant reductions in Aβ were observed: primary cortical neuronal cultures, dose response, FIGS. 13 and 14. The format is cell-based. An excerpt:
Cultures of rat embryonic cortical neurons were established from day 18 pregnant SD rats using standard techniques (Gasparini et al., 2001, J. Neurosci. 21(8):2561-2570).
The next day, cells were labeled with ^35S-methionine and cysteine for four hours in the presence of compounds as above. Media and cells were then harvested and subjected to immunoprecipitation with antibody 4G8, to detect Aβ and APP. The media was serially immunoprecipitated first with antibody 4G8 and then antibody 22C11, for detection of secreted Aβ, sAPPP and sAPPα. Immunoprecipitates were subjected to PAGE and resolved by autoradiography; APP metabolites were compared by densitometry.

A further data set deals with brain Aβ40, Aβ42 and C99. In words: Brain Aβ and C99 in wild-type guinea pigs after intrathecal osmotic minipump treatment. The format is in vivo, guinea pig. The note with it: 2.8 mg/kg, 7 days. Here is the method: After 7 days of treatment, animals were sacrificed, and their brains homogenized in 25 mM Tris 7.5, 50 mM NaCl, 1 mM DTT, 5 mM EDTA, 1 mM EGTA, and 1× protease inhibitor cocktail (Complete™, Boehringer Biochemicals). Aliquots of brain homogenate were assayed for Aβ peptide by using a sandwich ELISA according the manufacturer's recommendations (Biosource International, Camarillo, Calif.) and for C99 by immunoprecipitation and Western blot analysis using standard methods.

In data set [6] the test system is wild-type 3T3 mouse fibroblasts. In words: Aβ production in wild-type 3T3 mouse fibroblasts. As to conditions: 5 μM or 10 μM STI-571; 0.5 μM or 1.0 μM Compound 1; similar degree as in Abl−/− and N2a cells. The format is cell-based. Here is the method: as §1, §2, §3

As usually defined, the IC50 is the concentration needed to halve the response being measured.

Each structure is given as a SMILES string. Counter-ions that a name gives are not always drawn.

For the molecule `CSc1cccc(Nc2ncc3cc(-c4c(Cl)cccc4Cl)c(=O)n(C)c3n2)c1` [Compound 1], the “Aβ generation in isolated membranes” value in the data set with γ-secretase is “dose-dependent decrease”. For the same molecule, the “cleavage of mΔe-Notch to form Notch intracellular domain (NICD)” value in the data set with mΔe-Notch was “unaffected”. In addition, in data set [1], the Aβ production result is “inhibited”. Also, the cytotoxicity result in data set [2] is reported as “not cytotoxic”. Further, in data set [3], the Aβ40 level result is listed as “dramatically reduced” and the Aβ42 level entry was “dramatically reduced”. For the same molecule, in data set [4] (FIGS. 6 and 7), the “Aβ after one hour of treatment” value is “dose-dependent decrease”. The 50% inhibitory concentration (IC50) in [4] (N2a cells expressing APP and either normal human presenilin 1 or ΔE9 mutant presenilin 1, read-out: IC50 (inhibited total levels of Aβ by 50%)) was less than 1 µM. Moreover, in data set [5], the “production of Aβ peptides” value was “inhibit” and the “concentration at which significant reductions in Aβ were observed” value was 0.5 µM. In addition, in [5] (primary neuronal cells cultured from rat brain, FIG. 9), the “secretion of soluble APP-α” value is given as “consistent secretion”. Besides, the “levels of Aβ in cells” value in [5] (rat cortical neurons) is recorded as “reduced”. Also, in data set [5] (rat cortical neurons, FIG. 8A, FIG. 10), the “levels of Aβ in media” value is reported as “reduced”. Also, in data set [5] (rat cortical neurons, FIG. 9), the “total cellular APP” value was “not reduced significantly” and the “total sAPP” value is on record as “not reduced significantly”. In the data set with brain Aβ40, Aβ42 and C99, the appearance of animals result was “healthy and active”. The “full-length βAPP levels” value with brain Aβ40, Aβ42 and C99 (FIG. 16C) is recorded as “do not change”. Besides, the Aβ production result in [6] is recorded as “inhibited”.

As to `Cc1ccc(NC(=O)c2ccc(CN3CCN(C)CC3)cc2)cc1Nc1nccc(-c2cccnc2)n1` [STI-571, imatinib mesylate, reference compound], the Aβ production result in [1] is listed as “inhibited”. The “Aβ after one hour of treatment” value in [4] (FIGS. 6 and 7) is listed as “dose-dependent decrease”. The APP levels result in data set [4] (intact N2a cells expressing Swedish variant of human APP, FIGS. 6 and 7) is on record as “do not change”. In [5], the “production of Aβ peptides” value is recorded as “inhibit” and the “concentration at which significant reductions in Aβ were observed” value amounted to 5 µM. For the same molecule, the Aβ production entry in data set [6] is given as “inhibited”.
